Molecules are shown by their SMILES. Like-named read-outs stand apart in the source and are kept apart here. Some results are limits rather than exact numbers.

The experiment concerns the target T1, K-RasG12C (1-169) (Homo sapiens, UniProt P01116, G12C).
T1 construct: Un-tagged recombinant K-Ras G12C (1-169) at 4 μM in Buffer A; hexahistidine (cleaved yes); made in house; host or cells: Escherichia coli BL21 (DE)
Put plainly: Mass spectrometric screen for extent of covalent labeling. In kind it is binding. The conditions noted are these: for Labeling % (10 micM) 24h: 10 micM compound, (plate) or (single) measurement; for percent covalent labeling at 10 µM: 10 micromolar. The protocol: Un-tagged recombinant K-Ras G12C (1-169) at 4 μM in Buffer A was reacted with inhibitors at 200 μM or 10 μM (2% DMSO final). At 2, 6, and 24 hrs, 10 μL aliquots were removed and the reactions were stopped by addition of 1 μL 2% formic acid. The extent of modification was determined by mass spectrometry.

The mark [1] stands for this setting: 2 h, 2 hrs, read-out: Percent reduction in activity of compound at 10 micromolar relative to control (no compound), 2 hrs.
Where [2] appears, read: 6 h, 6 hrs, read-out: Percent reduction in activity of compound at 10 micromolar relative to control (no compound), 6 hrs.
The mark [3] stands for this setting: 24 h, 24 hrs, read-out: Percent reduction in activity of compound at 10 micromolar relative to control (no compound), 24 hrs.

In the case of `C=CS(=O)(=O)NC1CCN(C(=O)CNc2ccc(Cl)cc2Cl)CC1` [Ras-028], the “Labeling % (10 micM) 24h” value is “+++ (plate) (20%< +++ <=40%)”. The percent covalent labeling at 10 µM under setting [1] is at most 5%. Under setting [2], the percent covalent labeling at 10 µM was at most 5%. Further, the percent covalent labeling at 10 µM under setting [3] was in the range of 20 to 40%. Moreover, under “Table 5”, the “Labeling % (10 micM) 24h” value is listed as “+++ (plate) (20%< +++ <=40%)”.
For `C=CS(=O)(=O)NC1CCN(C(=O)COc2ccc(Cl)cc2N2CCCC2)CC1` [Ras-029], the percent covalent labeling at 10 µM was at most 5% under setting [1], at most 5% under setting [2] and at most 5% under setting [3].
Turning to `C=CS(=O)(=O)NC1CCN(C(=O)COc2ccc(Cl)cc2I)CC1` [Ras-030], the percent covalent labeling at 10 µM is at most 5% under setting [1], at most 5% under setting [2] and 40 to 60% under setting [3].
With `C=CS(=O)(=O)NC1CCN(C(=O)COc2ccc(Cl)cc2CNC(C)=O)CC1` [Ras-031], the percent covalent labeling at 10 µM was at most 5% under setting [1], at most 5% under setting [2] and at most 5% under setting [3].
With `C=CS(=O)(=O)NC1CCN(C(=O)COc2ccc(Cl)cc2CN)CC1` [Ras-032], the percent covalent labeling at 10 µM reads like this: under setting [1], at most 5%; under setting [2], at most 5%; under setting [3], at most 5%.
As to `C=CS(=O)(=O)NC1CCN(C(=O)COc2ccc(Cl)cc2N)CC1` [Ras-033], the percent covalent labeling at 10 µM under setting [1] was at most 5%, the percent covalent labeling at 10 µM under setting [2] is at most 5% and the percent covalent labeling at 10 µM under setting [3] is at most 5%.
`C=CS(=O)(=O)NC1CCN(C(=O)COc2ccc(Cl)cc2N(C)C)CC1` [Ras-034]: the percent covalent labeling at 10 µM is, setting by setting: under setting [1], at most 5%; under setting [2], at most 5%; under setting [3], at most 5%.
In the case of `C=CS(=O)(=O)NC1CCN(C(=O)COc2cc(C(N)=O)c(Cl)cc2Cl)CC1` [Ras-035], the percent covalent labeling at 10 µM under setting [1] is at most 5%, the percent covalent labeling at 10 µM under setting [2] is at most 5% and the percent covalent labeling at 10 µM under setting [3] is at most 5%.
`C=CS(=O)(=O)NC1CCN(C(=O)COc2cc(I)c(Cl)cc2Cl)CC1` [Ras-036]: the percent covalent labeling at 10 µM reads like this: under setting [1], at most 5%; under setting [2], 5 to 20%; under setting [3], 40 to 60%.
Consider `C=CS(=O)(=O)NC1CCN(C(=O)COc2cc(C(=O)OC)c(Cl)cc2Cl)CC1` [Ras-037], for which the percent covalent labeling at 10 µM is, setting by setting: under setting [1], at most 5%; under setting [2], at most 5%; under setting [3], 5 to 20%.
Regarding `C=CS(=O)(=O)NC1CCN(C(=O)COc2cc(C(=O)O)c(Cl)cc2Cl)CC1` [Ras-038], the percent covalent labeling at 10 µM by setting is: under setting [1], at most 5%; under setting [2], at most 5%; under setting [3], at most 5%.
`C=CS(=O)(=O)NC1CCN(C(=O)COc2cc(O)c(Cl)cc2Cl)CC1` [Ras-039]: the percent covalent labeling at 10 µM was at most 5% under setting [1], at most 5% under setting [2] and 5 to 20% under setting [3].
Turning to `C=CS(=O)(=O)NC1CCN(C(=O)COc2cc(Br)c(Cl)cc2Cl)CC1` [Ras-040], the percent covalent labeling at 10 µM by setting is: under setting [1], at most 5%; under setting [2], at most 5%; under setting [3], 20 to 40%.
Regarding `C=CS(=O)(=O)NC1CCN(C(=O)COc2ccc(Cl)cc2OC)CC1` [Ras-041], the percent covalent labeling at 10 µM under setting [1] is at most 5%, the percent covalent labeling at 10 µM under setting [2] was at most 5% and the percent covalent labeling at 10 µM under setting [3] is 5 to 20%.
Regarding `C=CS(=O)(=O)NC1CCN(C(=O)COc2ccc(Cl)cc2C=O)CC1` [Ras-042], the percent covalent labeling at 10 µM under setting [1] was at most 5%, the percent covalent labeling at 10 µM under setting [2] is at most 5% and the percent covalent labeling at 10 µM under setting [3] was 5 to 20%.
`C=CS(=O)(=O)NC1CCN(C(=O)COc2cc(C(C)=O)c(Cl)cc2Cl)CC1` [Ras-043]: the percent covalent labeling at 10 µM under setting [1] was at most 5%, the percent covalent labeling at 10 µM under setting [2] is at most 5% and the percent covalent labeling at 10 µM under setting [3] is at most 5%.
On to `C=CS(=O)(=O)NC1CCN(C(=O)COc2cc(C(C)O)c(Cl)cc2Cl)CC1` (centres unmarked) [Ras-044], for which the percent covalent labeling at 10 µM runs as follows: under setting [1], at most 5%; under setting [2], at most 5%; under setting [3], 5 to 20%.
With `C=CS(=O)(=O)NC1CCN(C(=O)COc2cc(-c3nn[nH]n3)c(Cl)cc2Cl)CC1` [Ras-045], the percent covalent labeling at 10 µM is at most 5% under setting [1], at most 5% under setting [2] and at most 5% under setting [3].
Regarding `C=CS(=O)(=O)NC1CCN(C(=O)COc2ccc(Cl)cc2C(=O)N2CCC(NS(=O)(=O)C=C)CC2)CC1` [Ras-046], the percent covalent labeling at 10 µM under setting [1] is at most 5%, the percent covalent labeling at 10 µM under setting [2] was at most 5% and the percent covalent labeling at 10 µM under setting [3] was at most 5%.
Turning to `C=CS(=O)(=O)NC1CCN(C(=O)COc2cc(S(N)(=O)=O)c(Cl)cc2Cl)CC1` [Ras-047], the percent covalent labeling at 10 µM was at most 5% under setting [1], at most 5% under setting [2] and at most 5% under setting [3].
For the molecule `C=CS(=O)(=O)NC1CCN(C(=O)COc2cc(OCCO)c(Cl)cc2Cl)CC1` [Ras-048], the percent covalent labeling at 10 µM under setting [1] was at most 5%, the percent covalent labeling at 10 µM under setting [2] is at most 5% and the percent covalent labeling at 10 µM under setting [3] fell in the range of 5 to 20%.
In the case of `C=CS(=O)(=O)NC1CCN(C(=O)COc2cc(C(=O)NCCO)c(Cl)cc2Cl)CC1` [Ras-049], the percent covalent labeling at 10 µM runs as follows: under setting [1], at most 5%; under setting [2], at most 5%; under setting [3], at most 5%.
As to `C=CS(=O)(=O)NC1CCN(C(=O)COc2cc(CO)c(Cl)cc2Cl)CC1` [Ras-050], the percent covalent labeling at 10 µM runs as follows: under setting [1], at most 5%; under setting [2], at most 5%; under setting [3], 5 to 20%.
On to `C=CS(=O)(=O)NC1CCN(C(=O)COc2ccc(Cl)cc2CO)CC1` [Ras-051], for which the percent covalent labeling at 10 µM runs as follows: under setting [1], at most 5%; under setting [2], at most 5%; under setting [3], 5 to 20%.
Consider `C=CS(=O)(=O)NC1CCN(C(=O)CN(C)c2cc(Cl)c(Cl)cc2I)CC1` [Ras-052], for which the percent covalent labeling at 10 µM reads like this: under setting [1], at most 5%; under setting [2], at most 5%; under setting [3], 5 to 20%.
For `C=CS(=O)(=O)NC1CCN(C(=O)COc2cc(Cl)c(Cl)cc2I)CC1` [Ras-053], the percent covalent labeling at 10 µM is, setting by setting: under setting [1], at most 5%; under setting [2], 5 to 20%; under setting [3], 40 to 60%.
Take `C=CS(=O)(=O)NC1CCN(C(=O)CNc2cc(Cl)c(Cl)cc2OC)CC1` [Ras-054]: the percent covalent labeling at 10 µM under setting [1] was at most 5%, the percent covalent labeling at 10 µM under setting [2] fell in the range of 20 to 40% and the percent covalent labeling at 10 µM under setting [3] is over 60%.
For the molecule `C=CS(=O)(=O)NC1CCN(C(=O)CNc2cc(Cl)c(Cl)cc2O)CC1` [Ras-055], the “Labeling % (10 micM) 24h” value is on record as “+++++ (plate) (60% < +++++)”. In addition, the percent covalent labeling at 10 µM under setting [1] fell in the range of 5 to 20%. Moreover, the percent covalent labeling at 10 µM under setting [2] lay within 20 to 40%. The percent covalent labeling at 10 µM under setting [3] is over 60%. Also, under “Table 5”, the “Labeling % (10 micM) 24h” value was “+++++ (plate) (60% < +++++)”.
For `C=CS(=O)(=O)NC1CCN(C(=O)COc2cc(-c3cn[nH]c3)c(Cl)cc2Cl)CC1` [Ras-056], the percent covalent labeling at 10 µM by setting is: under setting [1], at most 5%; under setting [2], at most 5%; under setting [3], at most 5%.
As to `C=CS(=O)(=O)NC1CCN(C(=O)C(C)Oc2cc(CN)c(Cl)cc2Cl)CC1` (centres unmarked) [Ras-058], the percent covalent labeling at 10 µM by setting is: under setting [1], at most 5%; under setting [2], at most 5%; under setting [3], at most 5%.
As for `C=CS(=O)(=O)NC1CCN(C(=O)CNc2cc(Cl)c(Cl)cc2CC)CC1` [Ras-059], the “Labeling % (10 micM) 24h” value is listed as “+++++ (single) (60% < +++++)”. Besides, the percent covalent labeling at 10 µM under setting [1] was at most 5%. Also, the percent covalent labeling at 10 µM under setting [2] lay within 5 to 20%. Besides, the percent covalent labeling at 10 µM under setting [3] was over 60%. The “Labeling % (10 micM) 24h” value (Table 5) is listed as “+++++ (single) (60% < +++++)”.
With `C=CS(=O)(=O)NC1CCN(c2cc(-c3cc(Cl)c(Cl)cc3I)ccn2)CC1` [Ras-060], the percent covalent labeling at 10 µM is, setting by setting: under setting [1], at most 5%; under setting [2], at most 5%; under setting [3], at most 5%.
For `C=CS(=O)(=O)NC1CCN(C(=O)COc2cc(NS(C)(=O)=O)c(Cl)cc2Cl)CC1` [Ras-061], the percent covalent labeling at 10 µM is, setting by setting: under setting [1], at most 5%; under setting [2], at most 5%; under setting [3], at most 5%.
For the molecule `C=CC(=O)N1CCN(C(=O)CNc2cc(Cl)c(Cl)cc2OC)CC1` [Ras-062], the “Labeling % (10 micM) 24h” value is recorded as “+++ (single) (20%< +++ <=40%)”. For the same molecule, under setting [1], the percent covalent labeling at 10 µM was at most 5%. Further, the percent covalent labeling at 10 µM under setting [2] is at most 5%. Besides, under setting [3], the percent covalent labeling at 10 µM is 20 to 40%. Besides, the “Labeling % (10 micM) 24h” value (Table 5) is given as “+++ (single) (20%< +++ <=40%)”.
As for `C=CS(=O)(=O)NC1CCN(C(=O)COc2cc(Cl)c(Cl)cc2O)CC1` [Ras-063], the percent covalent labeling at 10 µM is at most 5% under setting [1], 5 to 20% under setting [2] and 20 to 40% under setting [3].
Take `C=CS(=O)(=O)NC1CCN(C(=O)CNc2cc(OC)c(Cl)cc2OC)CC1` [Ras-064]: the percent covalent labeling at 10 µM was at most 5% under setting [1], at most 5% under setting [2] and 20 to 40% under setting [3].
As for `C=CS(=O)(=O)NC1CCN(C(=O)CNc2cc(C(F)(F)F)c(Cl)cc2OC)CC1` [Ras-065], the percent covalent labeling at 10 µM reads like this: under setting [1], at most 5%; under setting [2], 5 to 20%; under setting [3], 20 to 40%.

The values above are taken from patent publication US11008334B2, “Compositions and methods for treating cancer” (The Regents of the University of California, priority 2012, dated 2021).
